Consider 22 molecules from patent US9561228B2 (Celgene Avilomics Research, Inc., priority 2013, dated 2017).

In assay [1] the test system is ERK1/2 phosphorylation of p90RSK in A375 cells. In words: Detection of total and phosphor-RSK by MSD ELISA (A375). The format is cell-based. The conditions noted are these: Homo sapiens, A-375, read-out: ERK1/ERK2 PRSK A375 EC50. In short, it runs like this:
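A375 cells serum-starved overnight in DMEM/0.1% FBS, then treated 2 h at 37° C with compound (1000× DMSO dilutions into medium). Lysates captured on RSK antibody-coated MSD plates; phospho-RSK (Ser380) and total RSK detected with SulfoTag secondary antibodies by electrochemiluminescence.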
A general note: In an ELISA, binding on a coated surface is turned into a signal by an enzyme label.

The test system of assay [2] is ERK1/2 phosphorylation of p90RSK in HT29 cells. In words: pRSK MSD Assay in HT29 cells. The format is cell-based. The conditions noted are these: Homo sapiens, HT-29, read-out: ERK1/ERK2 PRSK MSD HT29 EC50. In short, it runs like this: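 Serum-starved HT29 cells (0.1% FBS overnight) treated with test compound for 120 min at 37° C, then lysed with protease and phosphatase inhibitors. Phospho-p90RSK quantified by MSD sandwich immunoassay: RSK capture antibody, phospho-RSK detection antibody plus Sulfo-tagged antibody, electrochemiluminescence read.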

pEC50: −log10 of the molar value.

With `C=CC(=O)Nc1cc(C)ccc1Nc1nc(Nc2cc(OC)nc(N3CCN(C(C)=O)CC3)c2)ncc1Cl` [Compound I-296, N-(2-((2-((2-(4-acetylpiperazin-1-yl)-6-methoxypyridin-4-yl)amino)-5-chloropyrimidin-4-yl)amino)-5-methylphenyl)acrylamide], the pEC50 in assay [1] and in assay [2] was > 7.00 throughout.
`C=CC(=O)Nc1ccccc1Nc1nc(Nc2ccnc(F)c2)ncc1C(F)(F)F` [Compound I-287, N-(2-((2-((2-Fluoropyridin-4-yl)amino)-5-(trifluoromethyl)pyrimidin-4-yl)amino)phenyl)acrylamide]: the pEC50 in assay [1] and in assay [2] was > 7.00 each time.
Regarding `C=CC(=O)Nc1ccccc1Nc1nc(Nc2cc(OC)cc(OC)c2)ncc1C(F)(F)F` [Compound I-338, N-(2-((2-((3,5-dimethoxyphenyl)amino)-5-(trifluoromethyl)pyrimidin-4-yl)amino)phenyl)acrylamide], the pEC50 in assay [1] and in assay [2] was > 7.00 in each case.
As to `C=CC(=O)Nc1ccccc1Nc1nc(Nc2cc(NCCOC)nc(OC)c2)ncc1C(F)(F)F` [Compound I-286, N-(2-((2-((2-Methoxy-6-((2-methoxyethyl)amino)pyridin-4-yl)amino)-5-(trifluoromethyl)pyrimidin-4-yl)amino)phenyl)acrylamide], the pEC50 in assay [1] and in assay [2] was > 7.00 in each case.
`C=CC(=O)Nc1cc(C)ccc1Nc1nc(Nc2cc(OC)nc(N3CCN(CC)CC3)c2)ncc1C(F)(F)F` [Compound I-89, N-(2-((2-((2-(4-Ethylpiperazin-1-yl)-6-methoxypyridin-4-yl)amino)-5-(trifluoromethyl)pyrimidin-4-yl)amino)-5-methylphenyl)acrylamide]: the pEC50 in assay [1] and in assay [2] was 6.30 to 7.00 in each case.
Take `C=CC(=O)Nc1ccccc1Nc1nc(N[C@H]2CCN(S(C)(=O)=O)C2)ncc1C(F)(F)F` [Compound I-58, (S)—N-(2-((2-((1-(Methylsulfonyl)pyrrolidin-3-yl)amino)-5-(trifluoromethyl)pyrimidin-4-yl)amino)phenyl)acrylamide]: the pEC50 in assay [2] was 6.30 to 7.00.
`C=CC(=O)Nc1ccccc1Nc1nc(Nc2cc(OC)nc(OCCOC)c2)ncc1C(F)(F)F` [Compound I-283, N-(2-((2-((2-Methoxy-6-(2-methoxyethoxyl)pyridin-4-yl)amino)-5-(trifluoromethyl)pyrimidin-4-yl)amino)phenyl)acrylamide]: the pEC50 in assay [1] and in assay [2] was > 7.00 in each case.
As for `C=CC(=O)Nc1ccccc1Nc1nc(Nc2ccnnc2)ncc1C(F)(F)F` [Compound I-293, N-(2-((2-(Pyridazin-4-ylamino)-5-(trifluoromethyl)pyrimidin-4-yl)amino)phenyl)acrylamide], the pEC50 is 6.00 to 6.30 in assay [1] and 6.30 to 7.00 in assay [2].
For the molecule `C=CC(=O)Nc1ccccc1Nc1nc(Nc2cc(N[C@H]3CC[C@@H](O)CC3)nc(OC)c2)ncc1C(F)(F)F` [Compound I-292], in assay [1], the pEC50 was > 7.00.
As for `C=CC(=O)Nc1cc(OC)ccc1Nc1nc(Nc2cc(OC)nc(N3CCN(C(C)=O)CC3)c2)ncc1C(F)(F)F` [Compound I-91, N-(2-((2-((2-(4-Acetylpiperazin-1-yl)-6-methoxypyridin-4-yl)amino)-5-(trifluoromethyl)pyrimidin-4-yl)amino)-5-methoxyphenyl)acrylamide], the results for the pEC50 in assay [1] and in assay [2] were > 7.00 and 6.30 to 7.00, respectively.
For `C=CC(=O)Nc1cc(OC)ccc1Nc1nc(Nc2cc(OC)ncc2C)ncc1Cl` [Compound I-242, N-(2-((5-chloro-2-((2-methoxy-5-methylpyridin-4-yl)amino)pyrimidin-4-yl)amino)-5-methoxyphenyl)acrylamide], in that order: > 7.00 and > 7.00.
Consider `C=CC(=O)Nc1ccccc1Nc1nc(N[C@H]2CCN(C(C)=O)C2)ncc1C(F)(F)F` [Compound I-56, (S)—N-(2-((2-((1-Acetylpyrrolidin-3-yl)amino)-5-(trifluoromethyl)pyrimidin-4-yl)amino)phenyl)acrylamide], for which the pEC50 in assay [2] was 6.30 to 7.00.
As for `C=CC(=O)Nc1cc(OC)ccc1Nc1nc(Nc2cc(Cl)nc(OC)c2)ncc1Cl` [Compound I-245, N-(2-((5-chloro-2-((2-chloro-6-methoxypyridin-4-yl)amino)pyrimidin-4-yl)amino)-5-methoxyphenyl)acrylamide], the pEC50 in assay [2] is > 7.00.
With `C=CC(=O)Nc1ccccc1Nc1nc(Nc2cc(OC)nc(N3CCN(C)CC3)c2)ncc1C(F)(F)F` [Compound I-324, N-(2-((2-((2-methoxy-6-(4-methylpiperazin-1-yl)pyridin-4-yl)amino)-5-(trifluoromethyl)pyrimidin-4-yl)amino)phenyl)acrylamide], the pEC50 in assay [1] is 6.30 to 7.00.
As to `C=CC(=O)Nc1cc(C)ccc1Nc1nc(Nc2cc(OC)cc(OC)c2)ncc1C(F)(F)F` [Compound I-339, N-(2-((2-((3,5-dimethoxyphenyl)amino)-5-(trifluoromethyl)pyrimidin-4-yl)amino)-5-methylphenyl)acrylamide], the pEC50 in assay [1] was 6.00 to 6.30.
`C=CC(=O)Nc1ccccc1Nc1nc(N[C@H]2CCN(C(=O)CO)C2)ncc1C(F)(F)F` [Compound I-57, (S)—N-(2-((2-((1-(2-Hydroxyacetyl)pyrrolidin-3-yl)amino)-5-(trifluoromethyl)pyrimidin-4-yl)amino)phenyl)acrylamide]: the pEC50 in assay [2] was 6.30 to 7.00.
`C=CC(=O)Nc1cc(C)ccc1Nc1nc(Nc2cc(C(N)=O)ccn2)ncc1Cl` [Compound I-238, 2-((4-((2-acrylamido-4-methylphenyl)amino)-5-chloropyrimidin-2-yl)amino)isonicotinamide]: in assay [2], the pEC50 is > 7.00.
On to `C=CC(=O)Nc1ccccc1Nc1nc(N[C@H]2CCCN(C(C)=O)C2)ncc1Cl` [Compound I-115, (S)—N-(2-((2-((1-acetylpiperidin-3-yl)amino)-5-chloropyrimidin-4-yl)amino)phenyl)acrylamide], for which, in assay [2], the pEC50 is > 7.00.
Same read-out and setting: the figure for `C=CC(=O)Nc1ccccc1Nc1nc(N[C@@H]2CCN(C(C)=O)C2)ncc1C(F)(F)F` [Compound I-60, (R)—N-(2-((2-((1-Acetylpyrrolidin-3-yl)amino)-5-(trifluoromethyl)pyrimidin-4-yl)amino)phenyl)acrylamide] is < 6.00.
Turning to `C=CC(=O)Nc1ccccc1Nc1nc(N[C@H]2CCN(C(=O)OC)C2)ncc1C(F)(F)F` [Compound I-59, (S)-methyl 3-((4-((2-Acrylamidophenyl)amino)-5-(trifluoromethyl)pyrimidin-2-yl)amino)pyrrolidine-1-carboxylate], in assay [2], the pEC50 was < 6.00.
Take `C=CC(=O)Nc1ccccc1Nc1nc(Nc2cc(Cl)nc(OC)c2)ncc1Cl` [Compound I-246, N-(2-((5-chloro-2-((2-chloro-6-methoxypyridin-4-yl)amino)pyrimidin-4-yl)amino)phenyl)acrylamide]: the pEC50 in assay [2] was > 7.00.
In the case of `C=CC(=O)Nc1cc(C)ccc1Nc1nc(Nc2cc(N[C@H]3CC[C@@H](O)CC3)nc(OC)c2)ncc1C(F)(F)F` [Compound I-326, N-(2-((2-((2-((cis-4-hydroxycyclohexyl)amino)-6-methoxypyridin-4-yl)amino)-5-(trifluoromethyl)pyrimidin-4-yl)amino)-5-methylphenyl)acrylamide], in assay [1], the pEC50 was > 7.00.
